For data set [1], the system named is spontaneously hypertensive rats (SP-SHR). In words: Blood pressure after topical application in spontaneously hypertensive rats. It is filed as in vivo, rat. An excerpt:
To evaluate the ability of the amphiphilic peptide derivatives to exert systemic biological action after topical application, spontaneously hypertensive rats (SP-SHR) and Ang-(1-7) derivatives, as prepared in Example 1 were used.
SP-SHR rats (4-5 months-old with about 270 g body weight) were instrumented for acute blood pressure measurements using tribromoethanol anesthesia. Just after the arterial catheter implantation, the interscapular region was shaved for topical application of the formulation. Blood pressure (BP) was recorded 24 h after surgery (base line BP=173.0±6.2). BP was recorded in unanesthesized animals under resting conditions for 1 h. After that, a solution of Ang-(1-7) derivatives was applied topically (20 μl at 1 mg/ml) and BP was continuously recorded for 6 h.

In a further data set the test system is rats. The following applies: subcutaneous, 10 mg/(kg day) for 28 days; cited from earlier work.
A further data set relates to dogs. The settings on record: subcutaneous, 10 mg/(kg day) for 28 days; cited from earlier work.
The conditions of data set [2]: in vivo; cited from earlier work.
For data set [3] the following is noted: human, in vivo; cited from earlier work.
The mark [4] stands for this setting: topical application 20 μl at 1 mg/ml.

Read-outs that look alike come from different tables or passages of the source. No end group written: not given here.

With “Ang-(1-7) ester derivatives: Product of Example 1: Ang-(1-7) esterified with 1-octanol, mainly diester at C-terminal and Asp carboxyl groups, plus monoesters (DRVYIHP; not fully specified (residue 1, C-terminus); also: mixture: mainly diester at C-terminal and Asp carboxyl groups, plus monoesters; UniProt P01019 25-31, looked up)”, in data set [1] (setting [4]), the “duration of BP decrease” value is recorded as “up to 6 h” and the “start of BP decrease after application” value is 90 min. For the same substance, the “decrease of BP” value in data set [1] (topical application 20 μl at 1 mg/ml, BP recorded for 6 h) is on record as “up to 25 mmHg”.

Turning to “Asp^1-Arg^2-Val^3-Tyr^4-Ile^5-His^6-Pro^7 [Ang-(1-7)]”, in data set [1] (topical application), the “change in BP” value is listed as “did not cause significant change in BP”. For the same substance, the detectable toxicities entry with rats and with dogs was “did not lead to any detectable toxicities” throughout. The figures for the plasma half-life result in data set [2] and in data set [3] were “about 10 min” and roughly 30 min, respectively.
